The source made the active and inactive calls. Where only a bound is given, the exact number is not on record here.

Common to all, as to assay type: functional
Assay [1] has as its target Cyclin-dependent kinase 19 (Homo sapiens, UniProt Q9BWU1). The assay can be described thus: Navigating the Kinome. Panel member name: CDC2L6.
For assay [2], the target named is Cell division cycle 7-related protein kinase (Homo sapiens, UniProt O00311).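 Also: value obtained from a kinome-wide kinase panel.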
Assay [3] has as its target Tyrosine-protein kinase BTK (Homo sapiens, UniProt Q06187).
Assay [4] has as its target Hepatocyte growth factor receptor (Homo sapiens, UniProt P08581).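 Also: kinase panel profiling across the kinome, with MET as the panel member.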
Assay [5] has as its target Mitogen-activated protein kinase kinase kinase kinase 4 (Homo sapiens, UniProt O95819).
For assay [6], the target named is Calcium/calmodulin-dependent protein kinase type II subunit alpha (Homo sapiens, UniProt Q9UQM7). Briefly: Navigating the Kinome. Panel member name: CAMK2A.
The target in assay [7] is Protein kinase C theta type (Homo sapiens, UniProt Q04759). Briefly: Navigating the Kinome. Panel member name: PRKCQ.
For assay [8], the target named is Leucine-rich repeat serine/threonine-protein kinase 2 (Homo sapiens, UniProt Q5S007).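 Also: value from a broad kinome-wide panel profiling study in which LRRK2 was one of the kinases tested.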
In assay [9] the target is 5'-AMP-activated protein kinase catalytic subunit alpha-1 (Homo sapiens, UniProt Q13131).
Assay [10] addresses Inhibitor of nuclear factor kappa-B kinase subunit epsilon (Homo sapiens, UniProt Q14164). The assay can be described thus: Navigating the Kinome. Panel member name: IKBKE.
Assay [11] deals with Serine/threonine-protein kinase PAK 4 (Homo sapiens, UniProt O96013).
Assay [12] has as its target cAMP-dependent protein kinase catalytic subunit PRKX (Homo sapiens, UniProt P51817).
Assay [13] concerns the target Dual specificity mitogen-activated protein kinase kinase 1 (Homo sapiens, UniProt Q02750). Briefly: Navigating the Kinome. Panel member name: MAP2K1.
Assay [14] has as its target BDNF/NT-3 growth factors receptor (Homo sapiens, UniProt Q16620).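 Also: NTRK2 measured as one member of a broad kinome-wide kinase profiling panel.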
For assay [15], the target named is Tyrosine-protein kinase Lck (Homo sapiens, UniProt P06239).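 Also: lck was assayed as one member of a kinase panel.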
Assay [16] has as its target Vascular endothelial growth factor receptor 2 (Homo sapiens, UniProt P35968).
Assay [17] deals with Ribosomal protein S6 kinase alpha-3 (Homo sapiens, UniProt P51812).
For assay [18], the target named is Macrophage-stimulating protein receptor (Homo sapiens, UniProt Q04912). The assay can be described thus: Navigating the Kinome. Panel member name: MST1R.
Assay [19] concerns the target Casein kinase I isoform alpha (Homo sapiens, UniProt P48729).
The target in assay [20] is Dual specificity tyrosine-phosphorylation-regulated kinase 1A (Homo sapiens, UniProt Q13627).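 Also: measured against DYRK1A as one member of a broad kinome profiling panel.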
Assay [21] deals with Vascular endothelial growth factor receptor 1 (Homo sapiens, UniProt P17948).
Assay [22] addresses Tyrosine-protein kinase receptor TYRO3 (Homo sapiens, UniProt Q06418).
Assay [23] has as its target Rho-associated protein kinase 1 (Homo sapiens, UniProt Q13464).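 Also: measured within a broad kinome-wide panel profiling many kinases.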
Assay [24] concerns the target Mitogen-activated protein kinase 9 (Homo sapiens, UniProt P45984).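 Also: value from a kinome panel profiling assay, MAPK9 panel entry.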
Assay [25] deals with Death-associated protein kinase 3 (Homo sapiens, UniProt O43293).
Assay [26] concerns the target Dual specificity protein kinase CLK4 (Homo sapiens, UniProt Q9HAZ1).
The target of a further assay is Focal adhesion kinase 1 (Homo sapiens, UniProt Q05397).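 Also: measured as one member of a kinome panel.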
The target in assay [27] is Insulin-like growth factor 1 receptor (Homo sapiens, UniProt P08069). The assay can be described thus: Navigating the Kinome. Panel member name: IGF1R.
Assay [28] has as its target Leukocyte tyrosine kinase receptor (Homo sapiens, UniProt P29376). Briefly: Navigating the Kinome. Panel member name: LTK.
For assay [29], the target named is Dual specificity tyrosine-phosphorylation-regulated kinase 1B (Homo sapiens, UniProt Q9Y463). Briefly: Navigating the Kinome. Panel member name: DYRK1B.
Assay [30] has as its target Cyclin-dependent kinase 8 (Homo sapiens, UniProt P49336). The assay can be described thus: Navigating the Kinome. Panel member name: CDK8.
In assay [31] the target is Platelet-derived growth factor receptor alpha (Homo sapiens, UniProt P16234). The assay can be described thus: Navigating the Kinome. Panel member name: PDGFRA.
Assay [32] has as its target Tyrosine-protein kinase JAK3 (Homo sapiens, UniProt P52333).
In assay [33] the target is Serine/threonine-protein kinase pim-1 (Homo sapiens, UniProt P11309).
Assay [34] deals with Dual specificity protein kinase CLK2 (Homo sapiens, UniProt P49760).
In another assay the target is Activin receptor type-1 (Homo sapiens, UniProt Q04771). Briefly: Navigating the Kinome. Panel member name: ACVR1.
Assay [35] concerns the target cAMP-dependent protein kinase catalytic subunit alpha (Homo sapiens, UniProt P17612).
For assay [36], the target named is Serine/threonine-protein kinase TAO1 (Homo sapiens, UniProt Q7L7X3).
In assay [37] the target is ALK tyrosine kinase receptor (Homo sapiens, UniProt Q9UM73).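 Also: ALK tested as one member of a kinase panel screen.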
In assay [38] the target is Serine/threonine-protein kinase D3 (Homo sapiens, UniProt O94806).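 Also: determined within a kinase panel screen, with PRKCN as the panel member.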
For assay [39], the target named is Mitogen-activated protein kinase kinase kinase kinase 2 (Homo sapiens, UniProt Q12851).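 Also: measured as one member of a kinome-wide kinase panel, with MAP4K2 as the panel entry.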
Assay [40] has as its target Fibroblast growth factor receptor 1 (Homo sapiens, UniProt P11362).
For assay [41], the target named is Macrophage colony-stimulating factor 1 receptor (Homo sapiens, UniProt P07333).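 Also: value comes from the Navigating the Kinome screening panel, CSF1R member.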
The target of assay [42] is Tyrosine-protein kinase JAK2 (Homo sapiens, UniProt O60674).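 Also: JAK2 tested as one member of a kinase panel.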
Assay [43] deals with Tyrosine-protein kinase Fyn (Homo sapiens, UniProt P06241).
The target of assay [44] is Mitogen-activated protein kinase 8 (Homo sapiens, UniProt P45983).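 Also: value comes from one member of a kinome-wide kinase profiling panel.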
Assay [45] has as its target Dual specificity mitogen-activated protein kinase kinase 2 (Homo sapiens, UniProt P36507). Briefly: Navigating the Kinome. Panel member name: MAP2K2.
The target of assay [46] is Receptor-type tyrosine-protein kinase FLT3 (Homo sapiens, UniProt P36888).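 Also: FLT3 was tested as one member of a kinome-wide kinase panel.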
A further assay addresses Activated CDC42 kinase 1 (Homo sapiens, UniProt Q07912). The assay can be described thus: Navigating the Kinome. Panel member name: ACK1.
Assay [47] concerns the target Glycogen synthase kinase-3 alpha (Homo sapiens, UniProt P49840).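 Also: GSK3A result taken from a broad kinome-wide kinase panel.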
In assay [48] the target is Mitogen-activated protein kinase 14 (Homo sapiens, UniProt Q16539).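 Also: part of a kinome-wide panel, MAPK14 entry.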
Assay [49] deals with Serine/threonine-protein kinase TBK1 (Homo sapiens, UniProt Q9UHD2). Briefly: Navigating the Kinome. Panel member name: TBK1.
In assay [50] the target is Cyclin-dependent kinase 7 (Homo sapiens, UniProt P50613).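 Also: value comes from a kinome-wide kinase profiling panel in which CDK7 is one member.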
The target of assay [51] is G protein-coupled receptor kinase 5 (Homo sapiens, UniProt P34947). Briefly: Navigating the Kinome. Panel member name: GPRK5.
The target in assay [52] is Glycogen synthase kinase-3 beta (Homo sapiens, UniProt P49841).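 Also: value comes from a broad kinome profiling panel, with GSK3B as the panel member.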
For assay [53], the target named is Proto-oncogene tyrosine-protein kinase receptor Ret (Homo sapiens, UniProt P07949).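 Also: measured within a kinome-wide profiling panel, RET as the panel member.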
Assay [54] concerns the target Protein kinase C zeta type (Homo sapiens, UniProt Q05513).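 Also: measured as one member of a broad kinase profiling panel.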
The target of assay [55] is Cyclin-dependent kinase 1 (Homo sapiens, UniProt P06493).
Assay [56] has as its target MAP kinase-activated protein kinase 3 (Homo sapiens, UniProt Q16644).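 Also: value comes from a kinome-wide profiling panel in which MAPKAPK3 is one of the panel members.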
The target of assay [57] is Protein kinase C gamma type (Homo sapiens, UniProt P05129).
The target of assay [58] is Lymphokine-activated killer T-cell-originated protein kinase (Homo sapiens, UniProt Q96KB5).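 Also: value comes from a kinase panel screen in which TOPK was one of the panel members.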

Death-associated protein kinase 3, sequence (O43293 whole entry): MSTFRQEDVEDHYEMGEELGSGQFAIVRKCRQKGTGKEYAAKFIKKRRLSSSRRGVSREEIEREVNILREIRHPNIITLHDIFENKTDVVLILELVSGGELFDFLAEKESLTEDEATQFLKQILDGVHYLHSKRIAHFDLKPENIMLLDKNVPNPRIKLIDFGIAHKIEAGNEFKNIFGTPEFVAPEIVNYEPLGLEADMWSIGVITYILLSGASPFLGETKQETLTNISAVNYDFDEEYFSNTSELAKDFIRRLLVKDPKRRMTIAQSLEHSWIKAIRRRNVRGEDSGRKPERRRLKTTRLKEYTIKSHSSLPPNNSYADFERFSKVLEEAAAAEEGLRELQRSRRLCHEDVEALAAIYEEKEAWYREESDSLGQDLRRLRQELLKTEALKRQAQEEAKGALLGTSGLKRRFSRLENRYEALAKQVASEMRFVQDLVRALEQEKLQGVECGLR
Fibroblast growth factor receptor 1, sequence (P11362 whole entry): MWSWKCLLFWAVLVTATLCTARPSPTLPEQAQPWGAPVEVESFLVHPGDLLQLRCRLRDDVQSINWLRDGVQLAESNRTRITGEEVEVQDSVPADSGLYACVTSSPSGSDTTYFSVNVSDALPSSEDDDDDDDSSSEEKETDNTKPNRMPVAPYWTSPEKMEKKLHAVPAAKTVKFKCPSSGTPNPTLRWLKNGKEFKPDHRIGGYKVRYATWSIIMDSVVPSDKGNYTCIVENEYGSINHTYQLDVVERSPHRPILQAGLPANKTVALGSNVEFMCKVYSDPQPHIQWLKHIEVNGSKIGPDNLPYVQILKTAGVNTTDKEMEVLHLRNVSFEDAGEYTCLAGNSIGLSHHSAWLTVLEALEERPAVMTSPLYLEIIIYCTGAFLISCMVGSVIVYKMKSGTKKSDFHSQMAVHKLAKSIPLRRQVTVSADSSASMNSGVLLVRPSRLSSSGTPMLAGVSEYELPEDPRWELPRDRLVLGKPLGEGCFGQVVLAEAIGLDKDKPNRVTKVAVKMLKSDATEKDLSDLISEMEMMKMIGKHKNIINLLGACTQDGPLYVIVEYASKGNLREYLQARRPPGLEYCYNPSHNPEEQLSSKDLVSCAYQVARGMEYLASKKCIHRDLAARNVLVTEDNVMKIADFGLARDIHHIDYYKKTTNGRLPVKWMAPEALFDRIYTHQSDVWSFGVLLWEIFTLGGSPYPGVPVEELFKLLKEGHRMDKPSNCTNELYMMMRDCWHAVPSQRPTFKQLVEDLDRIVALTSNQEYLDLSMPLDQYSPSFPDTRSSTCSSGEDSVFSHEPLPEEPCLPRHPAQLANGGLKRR
Leucine-rich repeat serine/threonine-protein kinase 2, sequence (Q5S007 whole entry): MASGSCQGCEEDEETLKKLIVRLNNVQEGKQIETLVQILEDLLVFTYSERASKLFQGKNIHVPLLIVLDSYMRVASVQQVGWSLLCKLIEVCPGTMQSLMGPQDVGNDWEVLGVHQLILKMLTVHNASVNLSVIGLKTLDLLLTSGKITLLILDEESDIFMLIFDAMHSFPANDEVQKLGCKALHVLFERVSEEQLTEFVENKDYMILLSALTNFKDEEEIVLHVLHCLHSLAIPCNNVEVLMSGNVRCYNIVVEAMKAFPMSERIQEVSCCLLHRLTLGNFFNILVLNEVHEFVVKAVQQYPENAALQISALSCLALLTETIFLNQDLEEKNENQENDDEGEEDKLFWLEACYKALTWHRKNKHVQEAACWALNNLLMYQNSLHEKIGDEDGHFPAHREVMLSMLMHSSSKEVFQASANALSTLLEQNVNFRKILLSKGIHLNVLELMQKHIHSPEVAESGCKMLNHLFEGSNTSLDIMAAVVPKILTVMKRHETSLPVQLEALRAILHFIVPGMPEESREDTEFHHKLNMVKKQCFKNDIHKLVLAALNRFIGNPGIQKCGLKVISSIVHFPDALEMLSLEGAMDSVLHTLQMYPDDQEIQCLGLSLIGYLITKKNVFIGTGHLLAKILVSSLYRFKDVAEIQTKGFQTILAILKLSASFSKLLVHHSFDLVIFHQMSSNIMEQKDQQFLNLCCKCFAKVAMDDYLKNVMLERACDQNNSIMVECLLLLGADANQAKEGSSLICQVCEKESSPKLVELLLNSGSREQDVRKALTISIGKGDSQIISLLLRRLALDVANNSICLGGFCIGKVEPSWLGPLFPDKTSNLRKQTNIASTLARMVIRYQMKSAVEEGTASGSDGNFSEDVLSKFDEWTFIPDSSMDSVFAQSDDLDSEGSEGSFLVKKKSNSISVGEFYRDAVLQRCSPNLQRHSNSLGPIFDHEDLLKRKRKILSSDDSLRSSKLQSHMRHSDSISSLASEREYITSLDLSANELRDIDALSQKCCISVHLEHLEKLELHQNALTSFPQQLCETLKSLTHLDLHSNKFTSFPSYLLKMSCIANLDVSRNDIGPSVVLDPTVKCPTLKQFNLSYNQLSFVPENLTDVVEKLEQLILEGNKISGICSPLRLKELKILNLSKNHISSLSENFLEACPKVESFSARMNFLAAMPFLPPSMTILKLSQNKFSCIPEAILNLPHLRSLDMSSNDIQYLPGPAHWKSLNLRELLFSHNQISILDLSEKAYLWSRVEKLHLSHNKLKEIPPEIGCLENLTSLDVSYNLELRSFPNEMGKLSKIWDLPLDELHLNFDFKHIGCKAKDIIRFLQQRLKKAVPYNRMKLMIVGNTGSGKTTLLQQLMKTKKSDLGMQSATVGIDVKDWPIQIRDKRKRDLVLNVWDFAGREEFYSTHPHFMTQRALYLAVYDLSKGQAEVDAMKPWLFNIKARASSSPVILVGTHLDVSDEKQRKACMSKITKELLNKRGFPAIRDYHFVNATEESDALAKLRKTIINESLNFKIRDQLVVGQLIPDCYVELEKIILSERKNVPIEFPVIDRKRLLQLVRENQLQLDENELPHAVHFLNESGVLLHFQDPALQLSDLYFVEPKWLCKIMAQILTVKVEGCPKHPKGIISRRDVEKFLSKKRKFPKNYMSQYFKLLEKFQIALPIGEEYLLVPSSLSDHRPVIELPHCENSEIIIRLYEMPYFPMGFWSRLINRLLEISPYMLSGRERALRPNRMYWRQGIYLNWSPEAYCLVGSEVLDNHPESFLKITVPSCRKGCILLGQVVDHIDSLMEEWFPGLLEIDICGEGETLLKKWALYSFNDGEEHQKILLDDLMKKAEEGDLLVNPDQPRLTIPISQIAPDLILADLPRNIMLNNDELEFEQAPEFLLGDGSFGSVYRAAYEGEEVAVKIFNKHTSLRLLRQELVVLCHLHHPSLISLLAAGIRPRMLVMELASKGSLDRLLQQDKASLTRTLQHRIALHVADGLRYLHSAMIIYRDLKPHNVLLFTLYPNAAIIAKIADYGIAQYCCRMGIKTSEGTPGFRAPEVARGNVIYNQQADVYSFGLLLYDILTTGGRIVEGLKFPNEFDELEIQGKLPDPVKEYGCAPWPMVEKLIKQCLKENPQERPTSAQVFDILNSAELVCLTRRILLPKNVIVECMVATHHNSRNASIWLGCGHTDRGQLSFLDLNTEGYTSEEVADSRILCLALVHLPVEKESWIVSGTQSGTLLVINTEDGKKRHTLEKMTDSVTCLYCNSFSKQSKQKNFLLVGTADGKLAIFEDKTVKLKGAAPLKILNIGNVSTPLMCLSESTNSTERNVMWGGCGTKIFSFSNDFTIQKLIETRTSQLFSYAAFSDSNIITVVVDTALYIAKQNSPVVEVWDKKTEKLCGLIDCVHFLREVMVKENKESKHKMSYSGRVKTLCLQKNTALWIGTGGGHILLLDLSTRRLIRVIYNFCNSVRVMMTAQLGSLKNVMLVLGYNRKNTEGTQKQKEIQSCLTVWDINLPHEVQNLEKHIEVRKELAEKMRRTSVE
BDNF/NT-3 growth factors receptor, sequence (Q16620 whole entry): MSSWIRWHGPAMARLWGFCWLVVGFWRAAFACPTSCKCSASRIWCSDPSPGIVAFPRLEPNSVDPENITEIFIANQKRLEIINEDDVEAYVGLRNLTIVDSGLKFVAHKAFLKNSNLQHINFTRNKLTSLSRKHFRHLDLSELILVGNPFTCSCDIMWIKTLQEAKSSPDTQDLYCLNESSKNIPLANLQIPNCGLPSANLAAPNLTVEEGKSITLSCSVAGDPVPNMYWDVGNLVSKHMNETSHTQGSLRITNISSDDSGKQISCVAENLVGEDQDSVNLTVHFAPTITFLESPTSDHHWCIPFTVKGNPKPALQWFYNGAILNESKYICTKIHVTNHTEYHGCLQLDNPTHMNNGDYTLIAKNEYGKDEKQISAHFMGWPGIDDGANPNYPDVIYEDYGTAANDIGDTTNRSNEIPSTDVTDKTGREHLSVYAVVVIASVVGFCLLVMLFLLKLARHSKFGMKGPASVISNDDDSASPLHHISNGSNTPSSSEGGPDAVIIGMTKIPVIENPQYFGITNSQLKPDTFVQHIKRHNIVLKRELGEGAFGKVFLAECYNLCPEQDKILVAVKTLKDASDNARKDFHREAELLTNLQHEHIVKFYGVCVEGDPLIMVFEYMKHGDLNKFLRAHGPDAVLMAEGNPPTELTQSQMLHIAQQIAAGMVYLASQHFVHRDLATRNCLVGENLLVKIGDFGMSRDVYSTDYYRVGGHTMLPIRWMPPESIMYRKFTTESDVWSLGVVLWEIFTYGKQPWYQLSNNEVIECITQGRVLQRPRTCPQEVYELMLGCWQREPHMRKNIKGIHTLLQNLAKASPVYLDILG
cAMP-dependent protein kinase catalytic subunit PRKX, sequence (P51817 whole entry): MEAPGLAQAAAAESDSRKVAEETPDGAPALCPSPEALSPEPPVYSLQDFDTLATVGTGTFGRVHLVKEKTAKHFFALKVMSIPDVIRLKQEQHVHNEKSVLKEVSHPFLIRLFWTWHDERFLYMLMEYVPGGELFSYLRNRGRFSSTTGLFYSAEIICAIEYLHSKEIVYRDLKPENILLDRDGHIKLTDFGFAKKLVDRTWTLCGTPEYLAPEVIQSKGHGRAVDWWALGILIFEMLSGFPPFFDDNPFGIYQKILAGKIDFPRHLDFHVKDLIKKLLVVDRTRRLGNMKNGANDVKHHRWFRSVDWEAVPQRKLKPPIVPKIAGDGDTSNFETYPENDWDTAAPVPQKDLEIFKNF

The Ki is the equilibrium dissociation constant of an inhibitor or competing ligand from its target. As to `Cn1ncc2cc(Nc3ccnc(N)n3)ccc21`, the Ki in [1] was > 100000 nM (inactive); in assay [2], 398 nM (active).
On to `CC(C)Oc1cc(Nc2nc(NC(C)c3ccc(F)cn3)ncc2Cl)n[nH]1` (stereo unspecified), for which the Ki in assay [3] is 1000 nM (active); in assay [4] it was > 2510 nM (inactive); in [5], > 5010 nM (inactive); in assay [6], 316 nM (active); in [7], 501 nM (active); in [8], 1000 nM (active). Besides, the Ki in assay [9] is 158 nM (active); in assay [10] it was > 3160 nM (inactive); in assay [11] it was > 5010 nM (inactive); in [12], > 3160 nM (inactive); in [13] it was > 3160 nM (inactive); in assay [14], 1 nM (active). For the same molecule, the Ki in assay [15] is 398 nM (active); in assay [16], 501 nM (active); in assay [17] it was > 3980 nM (inactive); in [18], 200 nM (active); in assay [19], 1000 nM (active); in assay [20], > 2000 nM (inactive). In addition, the inhibition constant (Ki) in assay [21] was 1580 nM (active); in assay [22], > 3160 nM (inactive); in [23], 2000 nM (active); in assay [24], > 3980 nM (inactive); in [25], > 5010 nM (inactive); in assay [26], 501 nM (active). Moreover, the Ki at Focal adhesion kinase 1 is 31.6 nM (active); in assay [27], 1260 nM (active); in assay [28], 31.6 nM (active); in assay [29] it was > 2510 nM (inactive); in [30], > 3980 nM (inactive); in assay [31] it was > 2510 nM (inactive). The Ki in [32] is 2000 nM (active); in assay [33], > 6310 nM (inactive); in assay [34], 2510 nM (active); at Activin receptor type-1, 1580 nM (active); in assay [35], > 1260 nM (inactive); in assay [36], 2510 nM (active). For the same molecule, the Ki in [37] was 126 nM (active); in [38], > 3980 nM (inactive); in assay [39], > 2510 nM (inactive); in assay [40], 25.1 nM (active); in assay [41], > 2510 nM (inactive); in [42] it was 100 nM (active). Besides, the Ki was 398 nM (active) in assay [43]; > 5010 nM (inactive) in [44]; > 3980 nM (inactive) in assay [45]; 316 nM (active) in [46]; 25.1 nM (active) at Activated CDC42 kinase 1; > 3980 nM (inactive) in assay [47]. For the same molecule, the Ki in assay [48] is > 3980 nM (inactive); in [49] it was > 3160 nM (inactive); in assay [50], 316 nM (active); in assay [51] it was > 3980 nM (inactive); in [52], > 3980 nM (inactive); in assay [53] it was 39.8 nM (active).
For `Oc1cccc(-c2nc(N3CCOCC3)c3oc4ncccc4c3n2)c1` [PI-103], the Ki is > 7940 nM (inactive) in assay [54]; > 7940 nM (inactive) in [55]; > 10000 nM (inactive) in assay [56]; > 7940 nM (inactive) in assay [57]; > 10000 nM (inactive) in [58].

The values are drawn from ChEMBL document CHEMBL1201862, “PubChem BioAssay data set” (2004).
